According to patent publication US12534436B2, “Disubstituted adamantyl derivative or pharmaceutically acceptable salt thereof, and pharmaceutical composition for suppressing cancer growth comprising same as active ingredient” (ONECUREGEN CO., LTD., priority 2020, dated 2026):

Test system: HIF-1 (HRE-dependent luciferase reporter)
Assay: HRE-luciferase assay, screening of HIF-1 inhibitors in HCT116 cells
Format: cell-based, human
Conditions: HCT116 cells stably expressing HRE-dependent luciferase reporter, hypoxic conditions, 12 hours, means of three experiments
Method: HCT116 cells stably expressing the HRE-dependent luciferase reporter were treated with the disubstituted adamantyl derivative prepared in the above example under hypoxic conditions for 12 hours before measuring luciferase activity.
In HCT116 cells treated with disubstituted adamantyl derivatives, luciferase activity was investigated using HRE-luciferase assay. The HRE-luciferase reporter assay was performed as previously described using the luciferase assay system (Promega, Madison, WI, USA) according to the manufacturer's instructions (Naik, R. et al. Synthesis and Structure-Activity Relationship of (E)Phenoxyacrylic Amide Derivatives as Hypoxia-Inducible Factor (HIF) 1α Inhibitors. J. Med. Chem. 55, 10564-1057 (2012)). Luciferase activity was measured using a Victor X light luminescence reader (PerkinElmer, Boston, MA, USA).

With `COc1ccc(COC(=O)C23CC4CC(CC(C4)C2c2ccc(OCC(=O)NCc4ccco4)cc2)C3)cc1OC` (stereo not shown) [Compound 14c, 3,4-Dimethoxybenzyl-2-(4-(2-(furan-2-ylmethylamino)-2-oxoethoxy)phenyl) adamantane-1-ylcarboxylate] as the compound, how does the IC50 read?
The IC50 was 22.5 µM.

How did the IC50 (Homo sapiens, HCT-116) turn out when `COC(=O)c1cccc(NC(=O)COc2ccc(C34CC5CC(CC(C5)C3C(=O)OCCc3ccc(OC)c(OC)c3)C4)cc2)c1` (stereo not shown) [Compound 10d, Methyl-3-(2-(4-(2-((3,4-dimethoxyphenethoxy)carbonyl)adamantane-1-yl)phenoxy)acetamido)benzoate] was run?
The IC50 was > 20 µM.

For `COC(=O)c1cccc(NC(=O)COc2ccc(C34CC5CC(CC(C(=O)Nc6ccccn6)(C5)C3)C4)cc2)c1` [Compound 10i, Methyl-3-(2-(4-(3-(pyridin-2-ylcarbamoyl)-adamantan-1-yl)phenoxy)acetamido)benzoate], which IC50 (Homo sapiens, HCT-116) is on record?
Its IC50 is 2.4 µM.

`COC(=O)c1cccc(NC(=O)COc2ccc(C34CC5CC(CC(C(=O)OC)(C5)C3)C4)cc2)c1` [Compound 10a, Methyl-3-(2-(4-(3-((methoxy)carbonyl)adamantane-1-yl)phenoxy)acetamido)benzoate] was tested. Which IC50 (Homo sapiens, HCT-116) did it give?
The IC50 was 18.3 µM.

With `COc1ccc(COC(=O)C23CC4CC(CC(C4)C2c2ccc(OCC(=O)Nc4cccc5cccnc45)cc2)C3)cc1OC` (stereo not shown) [Compound 14b, 3,4-Dimethoxybenzyl-2-(4-(2-oxo-2-(quinolin-8-ylamino)ethoxy)phenyl) adamantane-1-ylcarboxylate] as the compound, how does the IC50 read?
The IC50 was > 20 µM.

For `CN1CCN(C(=O)COc2ccc(C34CC5CC(CC(C(=O)N6CCN(Cc7ccc(C(F)(F)F)cc7)CC6)(C5)C3)C4)cc2)CC1` [Compound 17b, 1-(4-Methylpiperazin-1-yl)-2-(4-(5-(4-(4-(trifluoromethyl)benzyl)piperazine-1-carbonyl)adamantan-1-yl-)phenoxy) ethanone], which IC50 is on record?
Its IC50 is 2.19 µM.

With `COC(=O)c1cccc(NC(=O)COc2ccc(C34CC5CC(C3)C(C(=O)OCc3ccc(OC)cc3)C(C5)C4)cc2)c1` (stereo not shown) [Compound 10b, Methyl-3-(2-(4-(4-((4-methoxybenzyloxy)carbonyl)adamantane-1-yl)phenoxy)acetamido)benzoate] as the compound, how does the IC50 (Homo sapiens, HCT-116) read?
The IC50 was > 20 µM.

With `COC(=O)c1cccc(NC(=O)COc2ccc(C34CC5CC(C3)C(C(=O)OCc3ccc(OC)c(OC)c3)C(C5)C4)cc2)c1` (stereo not shown) [Compound 10c, Methyl-3-(2-(4-(4-((3,4-dimethoxybenzyloxy)carbonyl)adamantane-1-yl)phenoxy)acetamido)benzoate] as the compound, how does the IC50 (Homo sapiens, HCT-116) read?
Its IC50 is 2.37 µM.

For `COc1cc2c(cc1OC)CN(C(=O)C13CC4CC(C1)CC(c1ccc(OCC(=O)N5CCN(C)CC5)cc1)(C4)C3)CC2` [Compound 21b, 2-(4-(3-(6,7-Dimethoxy-1,2,3,4-tetrahydroisoquinoline-2-carbonyl)adamantan-1-yl)phenoxy)-1-(4-methylpiperazin-1-yl) ethanone], which IC50 (Homo sapiens, HCT-116) is on record?
The IC50 was 9.51 µM.

`COc1cc2c(cc1OC)CN(C(=O)C13CC4CC(C1)CC(c1ccc(OCC(=O)N5CCOCC5)cc1)(C4)C3)CC2` [Compound 21a, 2-(4-(3-(6,7-Dimethoxy-1,2,3,4-tetrahydroisoquinoline-2-carbonyl)adamantan-1-yl)phenoxy)-1-morpholinoethanone] was tested. Which IC50 (Homo sapiens, HCT-116) did it give?
The IC50 was 5.43 µM.

`COc1ccc(COC(=O)C23CC4CC(CC(C4)C2c2ccc(OCC(=O)Nc4cccc(C(F)(F)F)c4)cc2)C3)cc1OC` (stereo not shown) [Compound 14a, 3,4-Dimethoxybenzyl-2-(4-(2-oxo-2-(3-(trifluoromethyl)phenylamino)ethoxy)phenyl) adamantane-1-ylcarboxylae] was tested. Which IC50 did it give?
The IC50 was > 20 µM.

With `CN1CCN(C(=O)COc2ccc(C34CC5CC(CC(C(=O)NCc6ccco6)(C5)C3)C4)cc2)CC1` [Compound 17a, N-(Furan-2-ylmethyl)-5-(4-(2-(4-methylpiperazin-1-yl)-2-oxoethoxy)phenyl) adamantan-1-yl-carboxamide] as the compound, how does the IC50 read?
The IC50 was > 20 µM.

How did the IC50 (Homo sapiens, HCT-116) turn out when `COc1ccc(CN2CCN(C(=O)C34CC5CC(C3)CC(c3ccc(OCC(=O)N6CCN(C)CC6)cc3)(C5)C4)CC2)cc1` [Compound 17c, 2-(4-(5-(4-(4-Methoxybenzyl)piperazine-1-carbonyl)adamantan-1-yl)phenoxy)-1-(4-methylpiperazin-1-yl) ethanone] was run?
The IC50 was 9.53 µM.

`COC(=O)c1cccc(NC(=O)COc2ccc(C34CC5CC(CC(C(=O)NCc6ccccc6)(C5)C3)C4)cc2)c1` [Compound 10g, Methyl-3-(2-(4-(3-benzylcarbamoyl-adamantan-1-yl)phenoxy)acetamido)benzoate] was tested. Which IC50 (Homo sapiens, HCT-116) did it give?
The IC50 was 1.3 µM.

With `COC(=O)c1cccc(NC(=O)COc2ccc(C34CC5CC(CC(C(=O)NCc6ccco6)(C5)C3)C4)cc2)c1` [Compound 10h, Methyl-3-(2-(4-(3-(furan-2-ylmethylcarbamoyl)-adamantan-1-yl)phenoxy)acetamido)benzoate] as the compound, how does the IC50 (Homo sapiens, HCT-116) read?
The IC50 was 3 µM.

For `CNC(=O)C12CC3CC(C1)CC(c1ccc(OCC(=O)Nc4cccc(C(=O)OC)c4)cc1)(C3)C2` [Compound 10f, Methyl-3-(2-(4-(3-methylcarbamoyl-adamantan-1-yl)phenoxy)acetamido)benzoate], which IC50 (Homo sapiens, HCT-116) is on record?
Its IC50 is 16.6 µM.

`COC(=O)c1cccc(NC(=O)COc2ccc(C34CC5CC(CC(C(=O)N6CCc7cc(OC)c(OC)cc7C6)(C5)C3)C4)cc2)c1` [Compound 10j, Methyl-3-(2-(4-(3-(6,7-dimethoxy-1,2,3,4-tetrahydroisoquinoline-2-carbonyl)-adamantan-1-yl)phenoxy)acetamido)benzoate] was tested. Which IC50 (Homo sapiens, HCT-116) did it give?
Its IC50 is 1.3 µM.

With `COC(=O)c1cccc(NC(=O)COc2ccc(C34CC5CC(CC(C(=O)OCc6ccco6)(C5)C3)C4)cc2)c1` [Compound 10e, Methyl-3-(2-(4-(3-((furan-2-ylmethoxy)carbonyl)adamantane-1-yl)phenoxy)acetamido)benzoate] as the compound, how does the IC50 (Homo sapiens, HCT-116) read?
The IC50 was 6.4 µM.

How did the IC50 turn out when `COc1ccc(COC(=O)C23CC4CC(CC(C4)C2c2ccc(OCC(=O)N4CCN(C)CC4)cc2)C3)cc1OC` (stereo not shown) [Compound 14d, 3,4-Dimethoxybenzyl-2-(4-(2-(4-methylpiperazin-1-yl)-2-oxoethoxy)phenyl) adamantane-1-ylcarboxylate] was run?
The IC50 was 1.67 µM.
